According to patent US9708247B2, “Modulators of the eIF2alpha pathway” (The Regents of the University of California, priority 2013, dated 2017):

System: ATF4 luciferase reporter
Assay: ATF4 luciferase reporter assay (Cell-luc) in HEK293T cells
Format: cell-based, human
Details: ATF4-luciferase reporter
Excerpt: FIGS. 1A-1C. […]
To identify inhibitors of PERK signaling, we engineered a reporter that allows monitoring of PERK activation in living cells. To this end, we constructed a retroviral vector containing the open-reading frame of firefly luciferase fused to the 5′UTR of ATF4 mRNA (FIG. 1A), which contains two short open-reading frames (uORFs) that control ATF4 translation in a stress-dependent manner. After infection, we established a HEK293T cell line harboring the stably integrated reporter. […] This format was used to screen 106,281 compounds covering a wide chemical space. We identified 460 hits (0.43%) (FIG. 1C), which were further validated in an 8-point dose-response assay using the same reporter. We further triaged the compounds by discarding inhibitors that also affected the IRE1 branch of the UPR using an XBP1-luciferase splicing reporter. […] We next used an orthogonal secondary screen that employed a different reporter (bi-cistronic ATF4-dGFPIRES-mCherry) stably integrated into a different cell line (U20S cells). The read-out of this latter screen was microscopy-based, which allowed us to simultaneously assess acute toxicity by cell counting, further reducing the number of viable hits to 77. As a tertiary screen, we tested compounds for their ability to inhibit ER stress-elicited induction of endogenous ATF4 by Western blot analysis. Twenty-eight compounds passed this test and were analyzed further.
ATF4 reporters were constructed by fusing the human full-length ATF4 5′-UTR (NCBI Accession BC022088.2) in front of the firefly luciferase (FLuc) or a destabilized eGFP (dEGFP) coding sequences lacking the initiator methionine.
The ATF4-FLuc reporter was generated by cloning a PCR-product containing the ATF4 full-length 5′-UTR (from +1 position a the transcription start site down to one nucleotide after the terminator codon of the second uORF) flanked by KpnI/XhoI and BglII sites at the 5′ and 3′ ends, respectively, into the KpnI-BglII sites of pCAX-F-XBP1-Luc. The resulting construct, pCAX-ATF4-FLuc, was then digested with BamHI, blunted with T4 DNA polymerase, and then digested with XhoI. The resulting fragment was then subcloned into the retroviral expression vector pLPCX (Clontech) after digesting it with HindIII, blunting with T4 DNA polymerase and then digesting with XhoI to generate pLPCX-ATF4-FLuc (DAA-312). DAA-312 was used to produce recombinant retroviruses using standard methods and the resulting viral supernatant was used to transduce HEK293T cells, which were then subsequently selected with puromycin to generate a stable cell line employed in the primary screen.
HEK293T cells carrying the ATF4 luciferase reporter were plated on poly-lysine coated 384 well plates (Greiner) at 30,000 cells per well. […] Luminescence was measured using One Glo (Promega) as specified by the manufacturer. […] Thus, these were considered unique to the PERK branch and were cherry-picked for further analysis.

Row | Structure (SMILES) | potency of trans-ISRIB relative to cis-ISRIB [fold]
1 | O=C(COc1ccc(Cl)cc1)N[C@H]1CC[C@H](NC(=O)COc2ccc(Cl)cc2)CC1 [Trans-ISRIB, 2-(4-Chlorophenoxy)-N-[(1r, 4r)-4-[2-(4-chlorophenoxy)acetamido]cyclohexyl]acetamide] | 100

Same assay, conditions: ATF4 luciferase reporter, HEK293T cells; read-out: IC50 (nM) Cell-luc

Row | IC50 [nM] | Structure (SMILES)
2 | 60 | N=C(COc1ccc(Cl)cc1)N[C@H]1CC[C@H](NC(=O)COc2ccc(Cl)cc2)CC1 [757264-L3]
3 | 344 | N=C(COc1ccc(Cl)c(F)c1)N[C@H]1CC[C@H](NC(=O)COc2ccc(Cl)c(F)c2)CC1 [compound 957915]
4 | 440 | C#CCN(C(=O)COc1ccc(Cl)cc1)[C@H]1CC[C@H](NC(=O)COc2ccc(Cl)cc2)CC1 [755854.2]

Same assay, conditions: Homo sapiens, HEK-293T, ATF4 luciferase reporter, HEK293T cells; read-out: IC50 (nM) Cell-luc

Row | IC50 [nM] | Structure (SMILES)
5 | 152 | O=C(Cc1ccc(Cl)cc1)NC[C@H]1CC[C@H](NC(=O)COc2ccc(Cl)cc2)CC1 [compound 885256]
6 | 200 | O=C(CCCC[C@H]1SC[C@@H]2NC(=O)N[C@@H]21)NCCCCCOC(=O)CCCCCn1cc(-c2ccc(OCC(=O)N[C@H]3CC[C@H](NC(=O)COc4ccc(Cl)cc4)CC3)cc2)nn1 [compound 916846]
7 | 4 | O=C(COc1ccc(Cl)cc1)N[C@H]1CC[C@H](NC(=O)COc2ccc(Cl)c(C(F)(F)F)c2)CC1 [compound 874803]
8 | 13 | O=C(COc1ccc(C(F)(F)F)cc1)N[C@H]1CC[C@H](NC(=O)COc2ccc(C(F)(F)F)cc2)CC1 [compound 754127]
9 | 5.2 | O=C(COc1ccc(Cl)cc1)N[C@H]1CC[C@H](NC(=O)COc2ccc(Cl)c(I)c2)CC1 [compound 914582]
10 | 48 | O=C(COc1ccc(F)cc1)N[C@H]1CC[C@H](NC(=O)COc2ccc(Cl)cc2)CC1 [compound 757257]
11 | 2700 | O=C(CCCC[C@H]1SCC2NC(=O)NC21)NCCOCCOCCOCCn1cc([C@]2(NC(=O)COc3ccc(Cl)cc3)CC[C@H](NC(=O)COc3ccc(Cl)cc3)CC2)nn1 (stereo partly shown) [compound 835087]
12 | > 10000 | Clc1ccccc1CNC[C@H]1CC[C@H](CNCc2ccccc2Cl)CC1 [compound 874805]
13 | > 10000 | O=C(COc1ccc(Cl)cc1)N[C@H]1CC[C@H](NC(=O)COc2cc(Cl)cc(Cl)c2)CC1 [compound 912565]
14 | > 10000 | O=C(COc1ccc(Cl)cc1)N[C@H]1CC[C@H](NC(=O)CS(=O)(=O)c2ccc(Cl)cc2)CC1 [compound 757263]
15 | > 10000 | CC(=O)c1cc(Cl)ccc1OCC(=O)N[C@H]1CC[C@H](NC(=O)COc2ccc(Cl)cc2)CC1 [compound 873972]
16 | 220 | O=C(COc1ccc(Cl)cc1)N[C@H]1CC[C@H](NC(=O)COc2cc(F)cc(F)c2)CC1 [compound 912564]
17 | 53 | O=C(COc1ccc(Cl)cc1)Nc1ccc(NC(=O)COc2ccc(Cl)cc2)cc1 [compound 102509]
18 | 3 | Cc1cc(OCC(=O)N[C@H]2CC[C@H](NC(=O)COc3ccc(Cl)c(C)c3)CC2)ccc1Cl [compound 957886]
19 | 2 | O=C(COc1ccc(Cl)cc1)N[C@H]1CC[C@H](NC(=O)COc2ccc(Cl)c(F)c2)CC1 [compound 874802]
20 | 69 | O=C(COc1ccc(Cl)cc1)N[C@H]1CC[C@H](NC(=O)COc2ccc(Cl)cc2Cl)CC1 [compound 751594]

The remaining lines, values behind:

Row | Structure (SMILES) | IC50 [nM]
21 | O=C(COc1ccc(Cl)cc1)N[C@H]1CC[C@H](NC(=O)CSc2ccc(Cl)cc2)CC1 [compound 757261] | > 10000
22 | N=C(COc1ccc(Cl)cc1)N[C@H]1CC[C@H](N(Cc2cn(CCOCCOCCOCCNC(=O)CCCC[C@@H]3SCC4NC(=O)NC43)nn2)C(=O)COc2ccc(Cl)cc2)CC1 (stereo partly shown) [compound 835197] | > 10000
23 | O=C(CCCC[C@H]1SCC2NC(=O)NC21)NCCCCCOC(=O)CCCCCn1cc(-c2cc(OCC(=O)N[C@H]3CC[C@H](NC(=O)COc4ccc(Cl)cc4)CC3)ccc2Cl)nn1 (stereo partly shown) [compound 916847] | 900
24 | C[Si](C)(C)C#Cc1cc(OCC(=O)N[C@H]2CC[C@H](NC(=O)COc3ccc(Cl)cc3)CC2)ccc1Cl [compound 914583] | 12
25 | CC(C)c1ccc(OCC(=O)N[C@H]2CC[C@H](NC(=O)COc3ccc(Cl)cc3)CC2)cc1 [compound 874798] | 200
26 | O=C(COc1ccc(Cl)cc1)N[C@H]1CC[C@H](CNC(=O)Oc2ccc(Cl)cc2)CC1 [compound 885255] | 30
27 | O=C(NCc1ccc(CNC(=O)Oc2ccc(Cl)cc2)cc1)Oc1ccc(Cl)cc1 [compound 885254] | > 10000
28 | O=C(COc1ccccc1)N[C@H]1CC[C@H](NC(=O)COc2ccc(Cl)cc2)CC1 [compound 751593] | 384
29 | O=C(Cc1ccc(Cl)cc1)NCc1ccc(CNC(=O)Cc2ccc(Cl)cc2)cc1 [compound 885253] | > 10000
30 | O=C(COc1ccc(Cl)cc1)NCc1ccc(CNC(=O)COc2ccc(Cl)cc2)cc1 [compound 874796] | > 10000
31 | C[Si](C)(C)C#Cc1ccc(OCC(=O)N[C@H]2CC[C@H](NC(=O)COc3ccc(C#C[Si](C)(C)C)cc3)CC2)cc1 [compound 916785] | > 10000
32 | Cc1cc(OCC(=O)N[C@H]2CC[C@H](NC(=O)COc3ccc(Cl)cc3)CC2)ccc1Cl [compound 874801] | 2.4
33 | O=C(COc1ccc(Cl)c(Cl)c1)N[C@H]1CC[C@H](NC(=O)COc2ccc(Cl)c(Cl)c2)CC1 [compound 957885] | 0.8
34 | O=C(CNc1ccc(Cl)cc1)N[C@H]1CC[C@H](NC(=O)COc2ccc(Cl)cc2)CC1 [compound 835089] | 700
35 | O=C(COc1ccc(Cl)cc1)N[C@H]1C[C@H](NC(=O)CSc2ccc(F)cc2)C1 [compound 811772] | > 10000
36 | O=C(COc1ccc(Cl)cc1)N[C@H]1CC[C@H](NC(=O)OCc2ccc(Cl)cc2)CC1 [compound 874797] | 122
37 | Cc1ccc(OCC(=O)N[C@H]2CC[C@H](NC(=O)COc3ccc(Cl)cc3)CC2)cc1 [compound 754128] | 95

Row | Structure (SMILES) | IC50 [nM]
38 | N=C(COc1ccc(Cl)c(Cl)c1)N[C@H]1CC[C@H](NC(=O)COc2ccc(Cl)c(Cl)c2)CC1 [compound 957914] | 40
39 | N#Cc1ccc(OCC(=O)N[C@H]2CC[C@H](NC(=O)COc3ccc(C#N)cc3)CC2)cc1 [compound 757095] | > 10000
40 | Cc1ccc(OCC(=O)N[C@H]2CC[C@H](NC(=O)COc3ccc(C)cc3)CC2)cc1 [compound 754126] | 327
41 | O=C(COc1ccc(Cl)cc1)N[C@H]1CC[C@H](NC(=O)COc2ccc(Cl)c(Cl)c2)CC1 [compound 874800] | 2
42 | CC(=O)c1cccc(OCC(=O)N[C@H]2CC[C@H](NC(=O)COc3ccc(Cl)cc3)CC2)c1 [compound 843984] | 1000
43 | O=C(COc1ccc(F)cc1)N[C@H]1CC[C@H](NC(=O)COc2ccc(F)cc2)CC1 [compound 757131] | 270
44 | O=C(COc1ccc(Cl)cc1)N[C@H]1CC[C@H](NC(=O)COc2ccc(Cl)cc2)CC1 [750213.2] | 3
45 | O=C(NC[C@H]1CC[C@H](CNC(=O)Oc2ccc(Cl)cc2)CC1)Oc1ccc(Cl)cc1 [compound 913815] | > 10000
46 | O=C(N[C@H]1CC[C@H](NC(=O)OCc2ccc(Cl)cc2)CC1)OCc1ccc(Cl)cc1 [compound 885257] | > 10000
47 | O=C(COc1ccc(I)cc1)N[C@H]1CC[C@H](NC(=O)COc2ccc(I)cc2)CC1 [compound 916784] | 51
48 | O=C(COc1ccc(Cl)cc1)N[C@H]1CC[C@H](NC(=O)COc2cccc(F)c2)CC1 [compound 912562] | 125
49 | O=C(COc1ccc(Cl)cc1)N[C@H]1CC[C@H](NC(=O)CSc2ccccc2)CC1 [compound 811769] | > 10000
50 | O=C(COc1ccc(O)cc1)N[C@H]1CC[C@H](NC(=O)COc2ccc(Cl)cc2)CC1 [compound 751597] | > 10000
51 | O=C(COc1ccc(Cl)cc1)N[C@H]1CC[C@H](N(CCOc2ccc(Cl)cc2)CCOc2ccc(Cl)cc2)CC1 [compound 835196] | 1400
52 | O=C(COc1ccc(Cl)cc1)N[C@H]1C[C@H](NC(=O)CSc2ccccc2)C1 [compound 811773] | > 10000
53 | O=C(COc1ccc(Cl)c(F)c1)N[C@H]1CC[C@H](NC(=O)COc2ccc(Cl)c(F)c2)CC1 [compound 957888] | 0.6

Same assay, conditions: Homo sapiens, HEK-293T, read-out: IC50 (nM) Cell-luc

Row | Structure (SMILES) | IC50 [nM]
54 | O=C(COc1ccc(I)cc1)N[C@H]1CC[C@H](NC(=O)COc2ccc(C3(C(F)(F)F)NN3)cc2)CC1 [compound 916744] | > 10000

Same assay, conditions: cultured HEK293T cells; 2 μg/ml tunicamycin, 7 h; synthesized isomers; read-out: IC50, inhibition of the ATF4-luciferase reporter

Row | IC50 [nM] | Structure (SMILES)
55 | 5 | O=C(COc1ccc(Cl)cc1)N[C@H]1CC[C@H](NC(=O)COc2ccc(Cl)cc2)CC1 [Trans-ISRIB, 2-(4-Chlorophenoxy)-N-[(1r, 4r)-4-[2-(4-chlorophenoxy)acetamido]cyclohexyl]acetamide]
